Like-named read-outs stand apart in the source and are kept apart here.
How the values were obtained:
SJSA-1 = assay: Protocol B: SJSA-1 CellTiter-Glo cell viability
Experimental: Protocol B: SJSA-1 and SN40R2 Assays
(§1) The CellTiter-Glo® Luminescent Cell Viability Assay is a homogeneous method to determine the number of viable cells in culture based on quantitation of the ATP present, which signals the presence of metabolically active cells. […] 100 μl of CTG reagent (Promega #G7573) was added to all wells and luminescence was measured on the topcount. The EC50 values were determined from a sigmoidal 4 parameter curve fit using XLfit in conjunction with Activity Base (IDBS; Guildford, Surrey, UK).

[1] = test system: SJSA-1 (MDM2 amplified, p53 wild-type osteosarcoma); assay: Protocol A: SJSA-1 growth inhibition (SRB); conditions: Homo sapiens, SJSA-1, 72 h
Experimental: Protocol A: SJSA-1 and SN40R2 Assays
(§2) Following incubation with the SRB dye at room temperature for 30 min, the plates were washed with 1% acetic acid and left to dry. […] The GI50 was calculated by non-linear regression analysis of the data using Prism v4.0 statistical software.

[2] = test system: SN40R2 (MDM2 amplified, p53 mutated osteosarcoma); assay: Protocol A: SN40R2 growth inhibition (SRB); conditions: 72 h; for inhibition at 30 µM: read-out: SN40R2 (Protocol A) % at concentration
Experimental: Protocol A: SJSA-1 and SN40R2 Assays
as §2

[3] = biological target: MDM2-p53 interaction (in vitro translated MDM2, biotinylated IP3 peptide) (Homo sapiens, UniProt Q00987); assay: MDM2-p53 interaction 96-well plate binding assay (ELISA)
Experimental: The ELISA assay was performed in streptavidin coated plates which were preincubated with 200 μl per well of 1 μg ml^−1 biotinylated IP3 peptide. The plates were ready to use for MDM2 binding after washing the plate with PBS.
The unbound secondary antibody was removed by washing three times with TBS-Tween. The bound HRP activity was measured by enhanced chemiluminesence (ECL™, Amersham Biosciences) using the oxidation of the diacylhydrazide substrate, luminol, to generate a quantifiable light signal. The percentage of MDM2 inhibition at a given concentration is calculated as the [1−(RLU detected in the compound treated sample−RLU negative DMSO control)÷(RLU of DMSO positive and negative controls)]×100 or as the (RLU detected in the compound treated sample÷RLU of DMSO controls)×100. The IC50 was calculated using a plot of % MDM2 inhibition vs concentration and is the average of two or three independent experiments.

SN40R2 = assay: Protocol B: SN40R2 CellTiter-Glo cell viability; conditions: 72 h
Experimental: Protocol B: SJSA-1 and SN40R2 Assays
as §1

[4] = Homo sapiens, SJSA-1, 72 h, read-out: SJSA1 IC50 (Protocol B), SJSA-1 cells, CellTiter-Glo, 72 hrs
[5] = read-out: SJSA-1 IC50 (Protocol A), SJSA-1 cells, SRB, 72 hrs
[6] = read-out: SN40R2 IC50 (Protocol B)
[7] = read-out: SN40R2 IC50 (Protocol B), SN40R2 cells, CellTiter-Glo, 72 hrs
[8] = read-out: SJSA1 IC50 (Protocol B), SJSA-1 cells, CellTiter-Glo, 72 hrs
[9] = Homo sapiens, SJSA-1, 72 h, read-out: SJSA1 IC50 (μM) (Protocol B), SJSA-1, Protocol B (CellTiter-Glo), 72 hrs
[10] = read-out: SJSA-1 IC50 (μM) (Protocol A), SJSA-1, Protocol A (SRB), 72 hrs
[11] = read-out: SN40R2 IC50 (μM) (Protocol A)
[12] = read-out: SN40R2 IC50 (μM) (Protocol B)

Chain of MDM2-p53 interaction (in vitro translated MDM2, biotinylated IP3 peptide) (Q00987 whole entry): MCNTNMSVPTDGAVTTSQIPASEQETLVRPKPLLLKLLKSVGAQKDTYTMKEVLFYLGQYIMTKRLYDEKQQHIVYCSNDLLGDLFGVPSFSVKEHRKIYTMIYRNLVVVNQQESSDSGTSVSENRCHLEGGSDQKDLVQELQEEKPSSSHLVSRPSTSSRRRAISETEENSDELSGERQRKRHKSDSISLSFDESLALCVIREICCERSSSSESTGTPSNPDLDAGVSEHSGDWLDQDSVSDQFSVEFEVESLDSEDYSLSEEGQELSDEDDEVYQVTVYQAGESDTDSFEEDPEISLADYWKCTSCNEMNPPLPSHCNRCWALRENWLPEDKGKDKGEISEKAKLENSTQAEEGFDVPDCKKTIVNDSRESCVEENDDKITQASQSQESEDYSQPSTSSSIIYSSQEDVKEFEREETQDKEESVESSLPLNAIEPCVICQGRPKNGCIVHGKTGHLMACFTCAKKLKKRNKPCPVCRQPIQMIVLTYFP

[2H]C([2H])(O)C1(C([2H])([2H])O[C@]2(c3ccc(Cl)cc3)c3c(F)cc(C(C)(C)O)cc3C(=O)N2Cc2ccc(C#N)cn2)CC1 [Example 5, 6-{[(1R)-1-(4-Chlorophenyl)-7-fluoro-1-({1-[hydroxy(^2H2)methyl]cyclopropyl}(^2H2)methoxy)-5-(2-hydroxypropan-2-yl)-3-oxo-2,3-dihydro-1H-isoindol-2-yl]methyl}pyridine-3-carbonitrile]
IC50 (SJSA-1; [4]): 0.28 µM | IC50 [1, 5]: 0.2 µM | inhibition at 30 µM [2]: 20% | IC50 [3]: 3.8 nM

CC(O)(c1cc(F)c2c(c1)C(=O)N(Cc1ccc(Cl)cn1)[C@@]2(OCC1(C#N)CC1)c1ccc(Cl)cc1)C1CCN(CCO)CC1 (single isomer, unassigned) [Example 420]
IC50 (SJSA-1; [4]): 0.87 µM | IC50 (SN40R2; [6]): 4.4 µM

CO[C@]1(c2ccc(Cl)cc2)c2c(F)cc(C(C)(O)C3CCN(C)CC3)cc2C(=O)N1Cc1ccc(Cl)cn1 (single isomer, unassigned) [Example 304]
IC50 (SN40R2; [7]): 9 µM

CO[C@]1(c2ccc(Cl)cc2)c2c(F)cc(C(C)(O)C3CCN(C(=O)CN(C)C)CC3)cc2C(=O)N1Cc1ccc(Cl)cn1 (stereo partly drawn) [Example 299, (3R)-3-(4-chlorophenyl)-2-[(5-chloropyridin-2-yl)methyl]-6-(1-{1-[2-(dimethylamino)acetyl]piperidin-4-yl}-1-hydroxyethyl)-4-fluoro-3-methoxy-2,3-dihydro-1H-isoindol-1-one]
IC50 (SJSA-1; [4]): 2 µM | IC50 (SN40R2; [7]): 8 µM

CO[C@]1(c2ccc(Cl)cc2)c2c(F)cc(C(C)(O)C3CCN(c4ncccn4)CC3)cc2C(=O)N1Cc1ccc(Cl)cn1 (stereo partly drawn) [Example 286, (3R)-3-(4-chlorophenyl)-2-[(5-chloropyridin-2-yl)methyl]-4-fluoro-6-{1-hydroxy-1-[1-(pyrimidin-2-yl)piperidin-4-yl]ethyl}-3-methoxy-2,3-dihydro-1H-isoindol-1-one]
IC50 (SN40R2; [7]): 12 µM

CO[C@]1(c2ccc(Cl)cc2)c2c(F)cc(C(C)(O)c3cn(C)c(C)n3)cc2C(=O)N1Cc1ccc(Cl)cn1 (single isomer, unassigned) [Example 162]
IC50 (SJSA-1; [8]): 0.22 µM | IC50 (SN40R2; [7]): 13 µM

CCC(O)(c1cc(F)c2c(c1)C(=O)N(Cc1ncc(Cl)cn1)[C@@]2(OC)c1ccc(Cl)cc1)C1(F)CCNCC1 (single isomer, unassigned) [Example 544]
IC50 (SJSA-1; [9]): 0.041 µM | IC50 [1, 10]: 0.032 µM | IC50 [2, 11]: 7.4 µM

CO[C@]1(c2ccc(Cl)cc2)c2c(F)cc(C(C)(O)c3cnn(C4CN(C(=O)OC(C)(C)C)C4)c3)cc2C(=O)N1Cc1ccc(Cl)cn1 (single isomer, unassigned) [Example 458]
IC50 (SN40R2; [12]): 12 µM

CCC(O)(c1cc(F)c2c(c1)C(=O)N(Cc1ncc(Cl)cn1)[C@@]2(OCCO)c1ccc(Cl)cc1)C1(F)CCN(C)CC1 (single isomer, unassigned) [Example 565]
IC50 (SJSA-1; [9]): 0.035 µM | IC50 [1, 10]: 0.045 µM | IC50 [2, 11]: 33 µM

CCC(O)(c1cc(F)c2c(c1)C(=O)N(Cc1ncc(Cl)cn1)[C@@]2(OC)c1ccc(Cl)cc1)C1(F)CCN(C2COC2)CC1 (single isomer, unassigned) [Example 552]
IC50 (SJSA-1; [9]): 0.02 µM | IC50 [1, 10]: 0.028 µM | IC50 [2, 11]: 21 µM

CCC(O)(c1cc(F)c2c(c1)C(=O)N(Cc1ccc(C#N)cn1)[C@@]2(OC[C@@H](C)O)c1ccc(Cl)cc1)C1(F)CCOCC1 (single isomer, unassigned) [Example 497]
IC50 (SJSA-1; [9]): 0.046 µM | IC50 [1, 10]: 0.039 µM | IC50 [2, 11]: 45 µM

CC(=O)N1CCC(C(C)(O)c2cc(F)c3c(c2)C(=O)N(Cc2ccc(Cl)cn2)[C@@]3(OCC2(C#N)CC2)c2ccc(Cl)cc2)CC1 (single isomer, unassigned) [Example 301]
IC50 (SJSA-1; [4]): 0.036 µM | IC50 [1, 5]: 0.07 µM | IC50 (SN40R2; [6]): 12 µM | IC50 ([2]; read-out: SN40R2 IC50 (Protocol A)): 28 µM | inhibition at 0.001 µM ([3]; @ 0.0010 μM, read-out: MDM2 % @ concentration): 75%

CO[C@]1(c2ccc(Cl)cc2)c2c(F)cc(C(C)(O)C3CN(C)C3)cc2C(=O)N1Cc1ccc(Cl)cn1 (single isomer, unassigned) [Example 307]
IC50 (SJSA-1; [4]): 1.9 µM | IC50 (SN40R2; [7]): 11 µM

CO[C@]1(c2ccc(Cl)cc2)c2c(F)cc(C(C)(O)c3ncc[nH]3)cc2C(=O)N1Cc1ccc(Cl)cn1 (stereo partly drawn) [Example 163, (3R)-3-(4-chlorophenyl)-2-[(5-chloropyridin-2-yl)methyl]-4-fluoro-6-[1-hydroxy-1-(1H-imidazol-2-yl)ethyl]-3-methoxy-2,3-dihydro-1H-isoindol-1-one]
IC50 (SJSA-1; [4]): 3.1 µM | IC50 (SN40R2; [7]): 13 µM

CCC(O)(c1cc(F)c2c(c1)C(=O)N(Cc1ccc(C#N)cn1)[C@@]2(OC)c1ccc(Cl)cc1)[C@H]1CC[C@H](O)CC1 (single isomer, unassigned) [Example 521]
IC50 (SJSA-1; [9]): 0.033 µM | IC50 [1, 10]: 0.035 µM | IC50 [2, 11]: 37 µM

CC(C)(O)c1cc(F)c2c(c1)C(=O)N(Cc1ccc(C#N)cn1)[C@@]2(OCC1(CO)CC1)c1ccc(Cl)cc1 [Example 36, 6-{[(1R)-1-(4-chlorophenyl)-7-fluoro-1-{[1-(hydroxymethyl)cyclopropyl]methoxy}-5-(2-hydroxypropan-2-yl)-3-oxo-2,3-dihydro-1H-isoindol-2-yl]methyl}pyridine-3-carbonitrile]
IC50 (SJSA-1; [4]): 0.18 µM | IC50 [1, 5]: 0.21 µM | inhibition at 30 µM [2]: 13% | IC50 [3]: 5.1 nM

CC[C@@](O)(c1cc(F)c2c(c1)C(=O)N(Cc1ncc(Cl)cn1)[C@@]2(OCC1(CO)CC1)c1ccc(Cl)cc1)C1CCN(C)CC1 [Example 556, (3R)-3-(4-chlorophenyl)-2-[(5-chloropyrimidin-2-yl)methyl]-4-fluoro-6-[(1S)-1-hydroxy-1-(1-methylpiperidin-4-yl)propyl]-3-{[1-(hydroxymethyl)cyclopropyl]methoxy}-2,3-dihydro-1H-isoindol-1-one]
IC50 (SJSA-1; [9]): 0.0064 µM | IC50 [1, 10]: 0.056 µM | IC50 [2, 11]: 27 µM

CCC(O)(c1cc(F)c2c(c1)C(=O)N(Cc1ncc(Cl)cc1O)[C@@]2(O[C@H]1C[C@@H](O)C1)c1ccc(Cl)cc1)c1cn(C)cn1 (single isomer, unassigned) [Example 487]
IC50 (SJSA-1; [9]): 0.025 µM | IC50 [1, 10]: 0.12 µM | IC50 [2, 11]: 27 µM

CCC(O)(c1cc(F)c2c(c1)C(=O)N(Cc1ncc(Cl)cn1)[C@@]2(O[C@H]1CCOC1)c1ccc(Cl)cc1)C1(F)CCNCC1 (single isomer, unassigned) [Example 541]
IC50 [1, 10]: 0.19 µM | IC50 (SN40R2; [12]): 10 µM | IC50 [2, 11]: 13 µM

CO[C@]1(c2ccc(Cl)cc2)c2c(F)cc(C(C)(O)c3nccs3)cc2C(=O)N1Cc1ccc(Cl)cn1 (stereo partly drawn) [Example 165, (3R)-3-(4-Chlorophenyl)-2-[(5-chloropyridin-2-yl)methyl]-4-fluoro-6-[1-hydroxy-1-(1,3-thiazol-2-yl)ethyl]-3-methoxy-2,3-dihydro-1H-isoindol-1-one]
IC50 (SJSA-1; [8]): 1.4 µM | IC50 (SN40R2; [7]): 13 µM
